{
  "source": "patent US9642859B2",
  "about": "“Use of capsazepine and analogs thereof to treat cancer” (THE BOARD OF REGENTS OF THE UNIVERSITY OF TEXAS SYSTEM, priority 2012, dated 2017)",
  "key": {"HSC3": {"system": "HSC3", "test": "Cell cycle analysis by DNA profile FACS, HSC3", "format": "cell-based, human", "details": "24 hours", "description": "(§1) In particular, Table 1 provides additional cell cycle distribution data of OSCC cells (%) treated with 0 μM, 30 μM, 60 μM, or 90 μM CPZ for 24 hours. Data for OSCC cell lines HSC3, SCC4, and SCC25 are also provided in diagrams of FIGS. 1G-1, 1G-2, and 1G-3, respectively."}, "SCC4": {"system": "SCC4", "test": "Cell cycle analysis by DNA profile FACS, SCC4", "format": "cell-based, human", "details": "24 hours", "description": "as §1"}, "SCC25": {"system": "SCC25", "test": "Additional cell proliferation assay, SCC25", "format": "cell-based, human", "details": "SCC25, 24 hour treatment", "from_the_text": "Observed reductions in cell proliferation in these additional in vitro studies are as follows: SCC4, 40%; HSC3, 50%; SCC25, 80%; Cal27, 15%; MDA231, 56%; and LnCap, 37%."}, "[1]": {"system": "MDA231 breast cancer cells", "test": "Cell viability assay of MDA231 cells with and without NAC", "format": "cell-based, human", "details": "24 h"}, "[2]": {"system": "PC3 prostate cancer cells", "test": "Cell viability assay of PC3 cells with and without NAC", "format": "cell-based, human", "details": "PC3 prostate cancer cells, 24 h"}, "[3]": {"test": "Liver and kidney function tests of tumor bearing mice", "format": "in vivo", "details": "40 μg CPZ intra-tumoral every other day over 14 days", "description": "FIG. 14. Liver and kidney function tests of tumor bearing mice following two week treatment with either vehicle control (Control) or 40 μg CPZ in 40 μl Veh medium (1 μg/μl) injected directly into tumor every other day over 14 days (CPZ).\nTreatments. CPZ (5 mg) was diluted in 250 μl of 100% DMSO to yield a final concentration of 20 μg/μl of stock solution. Stock solution (100 m) was subsequently diluted in 7% DMSO in sterile saline generating a final concentration of 1 μg/μl. A total of 40 μg in 40 μl was injected intra-tumorally. Control xenografts were injected intra-tumorally with 40 μl of vehicle control (7% DMSO). Mice were monitored daily for tumor growth, cachexia, and weight loss. Tumor volumes and body weight were recorded every other day. Tumor volumes were calculated by the formula: (4π/3)×(w/2)2×(l/2), where w=width and l=length. Measurements were made using a digital caliper. […]\nAt the conclusion of the experiment, serum was collected for liver and kidney function analysis. […] Tumors were analyzed histologically using H&E (hematoxylin and eosin) and TUNEL (terminal deoxyribonucleotidyl transferase-mediated dUTP nick end labeling) staining for detection of DNA fragmentation associated with apoptosis, and apoptotic figures were quantified. […]"}, "OSCC xenografts": {"system": "OSCC xenografts", "test": "TUNEL staining of OSCC xenografts", "format": "in vivo, mice", "details": "CPZ treated xenografts, p<0.001", "description": "FIG. 15A-15C. TUNEL staining of OSCC xenografts. FIG. 15A: Representative photomicrograph of TUNEL stain of HSC3 xenograft (10×) treated with vehicle control. […] FIG. 15B: Number of apoptotic figures per field in vehicle and 40 μg capsazepine (CPZ) treated SCC4 xenografts. FIG. 15C: Number of apoptotic figures per field in vehicle and CPZ (20 m) treated SCC25 xenografts. Student's T-Test of the average of six fields with n=3; ***p<0.001.\nAt the conclusion of the experiment, serum was collected for liver and kidney function analysis. […] Tumors were analyzed histologically using H&E (hematoxylin and eosin) and TUNEL (terminal deoxyribonucleotidyl transferase-mediated dUTP nick end labeling) staining for detection of DNA fragmentation associated with apoptosis, and apoptotic figures were quantified. [FIGS. 15-1 to 15-3] […] Therefore, CPZ empirically has shown promise for being a well-tolerated treatment for OSCC."}, "[4]": {"system": "OSCC cell lines (HSC3, SCC4, and SCC25)", "experimental": "Cell viability assays reported as % of vehicle control (n=3). […] VEH=delivery vehicle control without CAP or CPZ. *p<0.05, ***p<0.001.\nFIG. 1H-1: Cell viability assays of OSCC cell lines treated with 30 μM CPZ alone or in combination with 10 mM N-Acetyl-L-Cysteine (NAC) for 24 h (n=4); ***p<0.001.\nHuman OSCC Cell Lines. The human OSCC cell lines MDA231, PS3, SCC4 and SCC25 were obtained from ATCC (American Type Culture Collection, Rockville, Md.). The HSC3 cell line was obtained from the Japanese Cell Resource Bank (Osaka, Japan). […] Cells were maintained in DMEM (GIBCO, Carlsbad, Calif.) supplemented with 10% FBS at 37° C. in 5% CO2. Both cell lines were derived from primary OSCC tumors from the tongues of male patients in their fifth generation of life. Data regarding pertinent medical history, treatment, outcome of care and recurrence were not available.\nStatistical Analysis. Statistical analyses were performed using GraphPad Prism4 (San Diego, Calif.). Experiments were performed in triplicate and results are represented as means+SD except when indicated. […] Cytotoxicity assays of cell viability were analyzed by one-way ANOVA and Bonferroni's post-hoc test (n=3)."}, "[5]": {"system": "nicotinic acetylcholine receptors", "details": "cited from earlier work"}},
  "data": [
    {"smiles": "Oc1cc2c(cc1O)CN(C(=S)NCCc1ccc(Cl)cc1)CCC2", "note": "[CPZ, 2-[2-(4-chlorphenyl)ethylamino-thiocarbonyl]-7,8-dihydroxy-2,3,4,5-tetrahydro-1H-2-benzazepine]", "values": [
      {"measurement": "G0/G1", "setting": "HSC3; HSC3, CPZ 30 μM", "value": 47.76, "unit": "%"},
      {"measurement": "G2/M", "setting": "HSC3; HSC3, CPZ 30 μM", "value": 20.3, "unit": "%"},
      {"measurement": "S", "setting": "HSC3; HSC3, CPZ 30 μM", "value": 13.47, "unit": "%"},
      {"measurement": "SubG1", "setting": "HSC3; HSC3, CPZ 30 μM", "value": 18.47, "unit": "%"},
      {"measurement": "G0/G1", "setting": "HSC3; HSC3, CPZ 60 μM", "value": 24.09, "unit": "%"},
      {"measurement": "G2/M", "setting": "HSC3; HSC3, CPZ 60 μM", "value": 7.37, "unit": "%"},
      {"measurement": "S", "setting": "HSC3; HSC3, CPZ 60 μM", "value": 11.23, "unit": "%"},
      {"measurement": "SubG1", "setting": "HSC3; HSC3, CPZ 60 μM", "value": 57.31, "unit": "%"},
      {"measurement": "G0/G1", "setting": "HSC3; HSC3, CPZ 90 μM", "value": 23.53, "unit": "%"},
      {"measurement": "G2/M", "setting": "HSC3; HSC3, CPZ 90 μM", "value": 5.08, "unit": "%"},
      {"measurement": "S", "setting": "HSC3; HSC3, CPZ 90 μM", "value": 10.27, "unit": "%"},
      {"measurement": "SubG1", "setting": "HSC3; HSC3, CPZ 90 μM", "value": 61.12, "unit": "%"},
      {"measurement": "G0/G1", "setting": "SCC4; SCC4, CPZ 30 μM", "value": 70.77, "unit": "%"},
      {"measurement": "G2/M", "setting": "SCC4; SCC4, CPZ 30 μM", "value": 12.14, "unit": "%"},
      {"measurement": "S", "setting": "SCC4; SCC4, CPZ 30 μM", "value": 15.08, "unit": "%"},
      {"measurement": "SubG1", "setting": "SCC4; SCC4, CPZ 30 μM", "value": 2.01, "unit": "%"},
      {"measurement": "G0/G1", "setting": "SCC4; SCC4, CPZ 60 μM", "value": 21.03, "unit": "%"},
      {"measurement": "G2/M", "setting": "SCC4; SCC4, CPZ 60 μM", "value": 24.21, "unit": "%"},
      {"measurement": "S", "setting": "SCC4; SCC4, CPZ 60 μM", "value": 21.04, "unit": "%"},
      {"measurement": "SubG1", "setting": "SCC4; SCC4, CPZ 60 μM", "value": 33.72, "unit": "%"},
      {"measurement": "G0/G1", "setting": "SCC4; SCC4, CPZ 90 μM", "value": 15.61, "unit": "%"},
      {"measurement": "G2/M", "setting": "SCC4; SCC4, CPZ 90 μM", "value": 31.57, "unit": "%"},
      {"measurement": "S", "setting": "SCC4; SCC4, CPZ 90 μM", "value": 24.83, "unit": "%"},
      {"measurement": "SubG1", "setting": "SCC4; SCC4, CPZ 90 μM", "value": 27.99, "unit": "%"},
      {"measurement": "reduction in cell proliferation", "setting": "SCC25", "value": 80, "unit": "%"},
      {"measurement": "cytotoxicity", "setting": "[1]", "value": "significant dose dependent cytotoxicity"},
      {"measurement": "cytotoxicity", "setting": "[2]", "value": "significant dose dependent cytotoxicity"},
      {"measurement": "liver and kidney function", "setting": "[3]", "value": "No negative effects on liver or kidney function were detected"},
      {"measurement": "apoptotic figures in treated tumors (TUNEL)", "setting": "OSCC xenografts", "value": "significant increase in apoptotic figures"},
      {"measurement": "cytotoxicity", "setting": "[4]", "value": "significant dose dependent cytotoxicity"},
      {"measurement": "effect on nicotinic acetylcholine receptors", "setting": "[5]", "value": "Inhibitis"}
    ]}
  ]
}
